Results taken from the ASAP Discovery antiviral challenge data (2025).
Converted amounts (≈) assume the structure as drawn. “And” between values parts separate entries of the source, which are not always exact repeats. Equal entries are not always repeated.

Legend:
[1] = mdck_mdr1
[2] = human; liver_microsomes
[3] = not given; remark: listed apart in the source

SMILES	Papp [1]	microsomal CLint [2] [µL/min/mg]	solubility kinetic	logD [3]
C=C[C@H]1CN2CC[C@H]1C[C@@H]2[C@@H](O)c1ccnc2ccc(OC)cc12	13.9 ×10⁻⁶ cm/s	–	–	–
CC(C)CNC(=O)c1cc(Cl)c(F)cc1NS(=O)(=O)c1ccc(Oc2ccccc2Cl)cc1	2.39 ×10⁻⁶ cm/s	198	4 µM (≈ 2.05 µg/mL)	–
CC(C)c1nc2c(C(=O)Nc3cccc(CN)c3)cccc2[nH]1	3.84 ×10⁻⁶ cm/s	–	316 µM (≈ 97.4 µg/mL)	1.9
CC(C)n1cc2c(C(=O)Nc3ccc4c(c3)CNC4)cc(Cl)cc2n1	3.4 ×10⁻⁶ cm/s	–	181 µM (≈ 64.2 µg/mL)	1.6
CCc1cc(C(=O)Nc2cccc(CN)c2)sc1-c1ccc(Cl)cc1	0.995 ×10⁻⁶ cm/s	–	7 µM (≈ 2.6 µg/mL)	4.3
CO[C@H]1C[C@H](n2ncc3c(C(=O)Nc4ccc5c(c4)CNC5)cc(Cl)cc32)C1	1.6 ×10⁻⁶ cm/s	–	340 µM (≈ 135 µg/mL)	1.5
C[C@H]1O[C@@H](O[C@H]2[C@@H](O)C[C@H](O[C@H]3[C@@H](O)C[C@H](O[C@H]4CC[C@@]5(C)[C@H](CC[C@@H]6[C@@H]5C[C@@H](O)[C@]5(C)[C@@H](C7=CC(=O)OC7)CC[C@]65O)C4)O[C@@H]3C)O[C@@H]2C)C[C@H](O)[C@@H]1O	0.6 ×10⁻⁶ cm/s	–	–	–
Cc1ccc(NC(=O)c2cc(Cl)cc(NC(=O)OCc3ccccc3)c2)cc1CN	0.0873 ×10⁻⁶ cm/s	–	–	–
Clc1ccc2[nH]cc(Cc3ccc(-c4nn[nH]n4)cc3)c2c1	8.4 ×10⁻⁶ cm/s	–	–	2.1
Cn1ncc2c(C(=O)Nc3ccc4c(c3)CNC4)cc(Br)cc21	4.66 ×10⁻⁶ cm/s	–	392 µM (≈ 146 µg/mL)	1
NCc1cc(Cl)cc(C(=O)Nc2ccc3c(c2)CNC3)c1	–	–	–	2
NCc1cccc(NC(=O)c2cc(Cl)cc(NC(=O)OCc3ccccc3)c2)c1	2.11 ×10⁻⁶ cm/s	–	89 µM (≈ 36.5 µg/mL)	2.7
NCc1cccc(NC(=O)c2cccn3cc(CN4CCCC4)nc23)c1	5.25 ×10⁻⁶ cm/s	–	332 µM (≈ 116 µg/mL)	0.2
O=C(NCC(F)(F)F)c1cc(Cl)c(F)cc1NS(=O)(=O)c1ccc(Oc2ccccc2Cl)cc1	2.4 ×10⁻⁶ cm/s	70	14 µM (≈ 7.52 µg/mL)	–
O=C(Nc1cc(Cl)cc(-c2ccc3[nH]c(C(=O)O)cc3c2)c1)OCc1ccccc1	0.61 ×10⁻⁶ cm/s	–	356 µM (≈ 150 µg/mL)	3.7
O=C(Nc1cc(Cl)cc(C(=O)Nc2cccc(-c3nnn[nH]3)c2)c1)OCc1ccccc1	5.06 ×10⁻⁶ cm/s	–	65 µM (≈ 29.2 µg/mL)	3.7
O=C(Nc1cc(Cl)cc(C(=O)Nc2cccc(C3CCNCC3)c2)c1)OCc1ccccc1	1.8 ×10⁻⁶ cm/s	–	126 µM (≈ 58.5 µg/mL)	–
O=C(Nc1cc(Cl)cc(C(=O)Nc2n[nH]c3c2CNC3)c1)OCc1ccccc1	1.44 ×10⁻⁶ cm/s	–	26 µM (≈ 10.7 µg/mL)	–
O=C(Nc1ccc2c(c1)CNC2)c1cc(Cl)cc2c1CCC2	2.57 ×10⁻⁶ cm/s	–	335 µM (≈ 105 µg/mL)	1.8
O=C(O)COc1cccc(NC(=O)c2cc(Cl)cc(NC(=O)OCc3ccccc3)c2)c1	1.1 ×10⁻⁶ cm/s	–	360 µM (≈ 164 µg/mL)	1.8
O=C(O)Cn1ncc2cc(-c3cc(Cl)cc(NC(=O)OCc4ccccc4)c3)ccc21	5.12 ×10⁻⁶ cm/s	–	131 µM (≈ 57.1 µg/mL)	2.6

SMILES	Papp [1]	microsomal CLint [2] [µL/min/mg]	solubility kinetic	logD [3]
O=C1Cc2c(cc(F)cc2C(=O)Nc2ccc3c(c2)CNC3)N1	2.9 ×10⁻⁶ cm/s	–	368 µM (≈ 115 µg/mL)	-0.2
O=C1Cc2c(cccc2C(=O)Nc2ccc3c(c2)CNC3)N1	0.924 ×10⁻⁶ cm/s	–	152 µM (≈ 44.6 µg/mL)	0.3
O=C1Cc2cc(C(=O)Nc3ccc4c(c3)CNC4)ccc2N1	0.873 ×10⁻⁶ cm/s	–	136 µM (≈ 39.9 µg/mL)	–
c1ccc2c(CN3CCC(c4c[nH]c5cccnc45)CC3)c[nH]c2c1	4.6 ×10⁻⁶ cm/s	16	–	–
c1ccc2sc(C3CCN(Cc4c[nH]c5ccccc45)CC3)nc2c1	5.82 ×10⁻⁶ cm/s	38.1	119 µM (≈ 41.4 µg/mL)	–
C=CC[C@H](Nc1ccc(-c2nn[nH]n2)cc1)c1cc(Cl)cc(NC(=O)OCc2ccccc2)c1 (racemic)	2.6 ×10⁻⁶ cm/s	10.1	–	3.9
C=CC[C@H]1NCc2cc(NC(=O)c3cc(F)cc4[nH]ncc34)ccc21 (racemic)	3.86 ×10⁻⁶ cm/s	–	356 µM (≈ 120 µg/mL)	1.7
CC(C)NC(=O)[C@H](Nc1ccc2c(c1)CNC2)c1cc(Cl)cc2[nH]ncc12 (racemic)	0.963 ×10⁻⁶ cm/s	–	311 µM (≈ 119 µg/mL)	0.5
CCCCNC(=O)[C@H](Nc1ccc2c(c1)CNC2)c1cc(Cl)cc(C2CC2)c1 (racemic)	0.7 ×10⁻⁶ cm/s	–	379 µM (≈ 151 µg/mL)	2.3
CNC(=O)[C@H](Nc1cc(CN)cc(-c2nn[nH]n2)c1)c1cc(Cl)cc(C2CC2)c1 (racemic)	0.302 ×10⁻⁶ cm/s	–	352 µM (≈ 145 µg/mL)	1.5
CNC(=O)[C@H](Nc1cc(CN)cc(C(=O)O)c1)c1cc(Cl)cc(C2CC2)c1 (racemic)	0.94 ×10⁻⁶ cm/s	–	335 µM (≈ 130 µg/mL)	0
CNC(=O)[C@H](Nc1ccc(-c2nnn[nH]2)cc1)c1cc(Cl)cc(C2CC2)c1 (racemic)	1.6 ×10⁻⁶ cm/s	–	–	1.1
CNC(=O)[C@H](Nc1ccc2c(c1)CNC2)c1cc(Cl)cc(C2CC2)c1 (racemic)	1.5 ×10⁻⁶ cm/s	–	358 µM (≈ 127 µg/mL)	0.9
CNC(=O)[C@H](Nc1ccc2c(c1)CNC2)c1cc(Cl)cc2[nH]c(-c3ccccc3)nc12 (racemic)	1.02 ×10⁻⁶ cm/s	–	178 µM (≈ 76.9 µg/mL)	1.8
CNC(=O)[C@H](Nc1cccc(-c2nn[nH]n2)c1)c1cc(Cl)cc2[nH]ncc12 (racemic)	0.863 ×10⁻⁶ cm/s	–	347 µM (≈ 133 µg/mL)	0.3
COCc1cc(Cl)cc([C@H](Nc2ccc3c(c2)CNC3)C(=O)NCC(F)F)c1 (racemic)	1.7 ×10⁻⁶ cm/s	–	192 µM (≈ 78.7 µg/mL)	0.2
COc1cc(C#N)cc([C@H](Nc2ccc3c(c2)CNC3)C(=O)NCC(F)F)c1 (racemic)	0.5 ×10⁻⁶ cm/s	–	381 µM (≈ 147 µg/mL)	-0.4
COc1cc(Cl)cc([C@H](Nc2ccc3c(c2)CNC3)C(=O)NCC(F)F)c1 (racemic)	0.7 ×10⁻⁶ cm/s	–	–	0.5
Cc1c(C(=O)Nc2cc([C@H]3CCOC3)ccn2)cc(C2CC2)n1C (racemic)	27.2 ×10⁻⁶ cm/s	57.7	–	3
Cc1cc([C@H](Nc2ccc3c(c2)CNC3)C(=O)NCC(F)F)cc(C(F)(F)F)c1 (racemic)	0.7 ×10⁻⁶ cm/s	–	–	1
Cc1nccn1C[C@H]1CCc2c(c3ccccc3n2C)C1=O (racemic)	–	–	127 µM (≈ 37.3 µg/mL)	–

SMILES	Papp [1]	microsomal CLint [2] [µL/min/mg]	solubility kinetic	logD [3]
N#CCCNC(=O)[C@H](Nc1ccc2c(c1)CNC2)c1cc(Cl)cc(C2CC2)c1 (racemic)	0.5 ×10⁻⁶ cm/s	–	374 µM (≈ 148 µg/mL)	0.6
NCc1cc(C(=O)O)cc([C@@H]2C[C@H]2c2cc(Cl)cc(NC(=O)OCc3ccccc3)c2)c1 (racemic)	0.819 ×10⁻⁶ cm/s	–	52 µM (≈ 23.4 µg/mL)	2.7
NCc1cccc(NC(=O)C[C@H](NC(=O)OCc2ccccc2)c2ccc(OCc3ccccc3)cc2)c1 (racemic)	1.04 ×10⁻⁶ cm/s	17	17 µM (≈ 8.66 µg/mL)	–
NCc1cccc(NC(=O)[C@H](NC(=O)OCc2ccccc2)C(C2CCC2)C2CCC2)c1 (racemic)	1.6 ×10⁻⁶ cm/s	12.6	–	2.5
NCc1cccc(NC(=O)[C@H](NC(=O)OCc2ccccc2)C2CCCCC2)c1 (racemic)	1.58 ×10⁻⁶ cm/s	5.29	–	2
O=C(NCC(F)F)[C@H](Nc1cc2c(cc1Br)CNC2)c1cc(Cl)cc(C2CC2)c1 (racemic)	0.2 ×10⁻⁶ cm/s	–	333 µM (≈ 161 µg/mL)	2.9
O=C(NCC(F)F)[C@H](Nc1ccc2c(c1)CNC2)c1cc(Br)cc2nc[nH]c12 (racemic)	0.5 ×10⁻⁶ cm/s	–	–	0.4
O=C(NCC(F)F)[C@H](Nc1ccc2c(c1)CNC2)c1cc(Cl)cc(C2CC2)c1 (racemic)	1.55 ×10⁻⁶ cm/s	–	367 µM (≈ 149 µg/mL)	1.6
O=C(NCC(F)F)[C@H](Nc1ccc2c(c1)CNC2)c1cc(Cl)cc2c1CCC2 (racemic)	0.9 ×10⁻⁶ cm/s	–	–	1.2
O=C(NCC(F)F)[C@H](Nc1ccc2c(c1)CNC2)c1cc(Cl)cc2ccoc12 (racemic)	2.1 ×10⁻⁶ cm/s	–	187 µM (≈ 75.9 µg/mL)	0.6
O=C(NCC(F)F)[C@H](Nc1cnc2c(c1)CNC2)c1cc(Cl)cc(C2CC2)c1 (racemic)	0.8 ×10⁻⁶ cm/s	–	362 µM (≈ 147 µg/mL)	1.5
O=C(NCCCF)[C@H](Nc1ccc2c(c1)CNC2)c1cc(Cl)cc(C2CC2)c1 (racemic)	0.7 ×10⁻⁶ cm/s	–	394 µM (≈ 158 µg/mL)	1.2
O=C(Nc1cc(Cl)cc([C@H](Nc2cccc(-c3nn[nH]n3)c2)C(=O)NCc2ccccc2)c1)OCc1ccccc1 (racemic)	0.6 ×10⁻⁶ cm/s	–	–	3.7
O=C(Nc1cc(Cl)cc([C@H]2CN(Cc3ccccc3)C[C@@H]2c2cccc(-c3nn[nH]n3)c2)c1)OCc1ccccc1 (racemic)	0.2 ×10⁻⁶ cm/s	46.3	–	4.1
OCC#C[C@H](Nc1ccc2c(c1)CNC2)c1cc(Cl)cc2[nH]ncc12 (racemic)	0.592 ×10⁻⁶ cm/s	–	135 µM (≈ 47.6 µg/mL)	0.5
CC(C)[C@H](Nc1ncnc2[nH]c(-c3cnn(C)c3C#N)cc12)c1ccc2c(n1)OCCO2 (single isomer, unassigned)	13.7 ×10⁻⁶ cm/s and 14.6 ×10⁻⁶ cm/s	–	53 µM and 50 µM	3.7 and 3.9
CC(C)[C@H](Nc1ncnc2[nH]c(-c3cnn(CC(=O)N(C)C)c3)cc12)c1ccc2c(c1)S(=O)(=O)CCC2 (single isomer, unassigned)	1.17 ×10⁻⁶ cm/s and 0.555 ×10⁻⁶ cm/s	–	361 µM and 256 µM	2.2
CC(C)[C@H](Nc1ncnc2[nH]c(C(=O)N[C@@H]3CCN(C)C3)cc12)c1ccc2c(c1)S(=O)(=O)CCC2 (single isomer, unassigned)	–	–	366 µM and 392 µM	1.4 and 1.6
CC(C)[C@H](Nc1ncnc2[nH]cc(C(=O)NC3CC3)c12)c1ccc2c(c1)S(=O)(=O)CCC2 (single isomer, unassigned)	2.97 ×10⁻⁶ cm/s and 1.27 ×10⁻⁶ cm/s	–	–	3.2 and 3
O=C(NCC(F)F)[C@H](Nc1ccc2c(c1)CNC2)c1cc(Cl)cc(C2CC2)c1 (single isomer, unassigned)	1.3 ×10⁻⁶ cm/s and 1.9 ×10⁻⁶ cm/s	–	326 µM and 139 µM	1.3 and 1.4
